According to patent US20030130340A1, “Novel benzothiophene derivatives” (Daiichi Pharmaceutical Co. Ltd., priority 2000, published 2003):
Structures can show the parent of a compound that is named as a salt.

molecular target: T1, steroid 17α-hydroxylase and/or steroid C17-20 lyase (Rattus norvegicus, UniProt P11715); assay: Measurement of steroid 17α-hydroxylase and/or steroid C17-20 lyase inhibitory activity (rat testis microsome, HPLC); format: biochemical; conditions: Enzyme source: rat testis microsome; test compound 300 nM; substrate 25 μM 17α-hydroxyprogesterone; NADPH 500 μM; 20 minutes at 37° C.
T1 construct: the testis of rats (SD, male) was homogenized and centrifuged to obtain microsome; from tissue; host or cells: rat (SD, male) testis microsomes
T1 sequence (P11715 1-507): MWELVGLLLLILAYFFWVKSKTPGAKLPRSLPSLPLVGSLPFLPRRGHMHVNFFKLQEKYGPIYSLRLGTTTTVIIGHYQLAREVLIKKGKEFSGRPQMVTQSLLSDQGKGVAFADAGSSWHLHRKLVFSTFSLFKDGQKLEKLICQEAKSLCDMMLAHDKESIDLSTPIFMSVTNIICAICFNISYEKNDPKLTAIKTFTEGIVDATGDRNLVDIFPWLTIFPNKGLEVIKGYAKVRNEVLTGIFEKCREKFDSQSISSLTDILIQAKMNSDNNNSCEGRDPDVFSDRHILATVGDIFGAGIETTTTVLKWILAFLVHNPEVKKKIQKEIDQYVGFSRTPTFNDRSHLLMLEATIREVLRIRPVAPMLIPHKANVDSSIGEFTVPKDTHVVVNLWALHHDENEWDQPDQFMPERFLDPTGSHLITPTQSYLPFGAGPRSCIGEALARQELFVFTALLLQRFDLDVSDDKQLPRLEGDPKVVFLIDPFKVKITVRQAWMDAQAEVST
Method: An experiment was carried out according to the method of T. Sergejew and R. W. Hartmann (J. Enzyme Inhibition, 8, 113(1994)). That is, the testis of rats (SD, male) was homogenized and centrifuged to obtain microsome. […] After the addition of 100 μl of microsome protein solution, the protein contentration was adjusted to 0.1 mg/ml by 50 mM phosphate buffer solution (pH 7.4), 140 μl of 125 nmol NADPH solution, and 10 μl of 6.25 nmol 17α-hydroxyprogesterone, the mixture was incubated for 20 minutes at 37° C. 50 μl of 1N hydrochloric acid and 1000 μl of ethyl acetate were sequentially added to the mixture. The mixture was shaken and centrifuged. The ethyl acetate layer was washed with 250 μl of 50 mM phosphate buffer solution (pH 7.4) and 50 μl of 1N hydrochloric acid, centrifuged, and concentrated. The concentrate was dissolved in 100 μl of acetonitrile. 10 μl of this solution was charged to high performance liquid chromatography. The amounts of the substrate and the product (androstenedione and testosterone) were measured to calculate the enzyme activity. In this experiment, a sample without the test compound was provided as a control group. Steroid 17α-hydroxylase and/or steroid C17-20-lyase inhibitory activity (%) was calculated by the following equation (1) using the amounts of the substrate and the product obtained.

Row | Compound | inhibition at 0.3 µM | Inhibitory activity (%)
1 | COc1ccc2c(-c3cccnc3)csc2c1 [Example 2, 3-[6-methoxybenzo[b]thiophen-3-yl]pyridine hydrochloride] | 89% | –
2 | COc1ccc(-c2ccc3c(-c4ccncc4)csc3c2)cc1 [Example 7, 4-[6-(4-methoxyphenyl)benzo[b]thiophen-3-yl]pyridine] | 60% | –
3 | Oc1ccc2c(-c3cccnc3)csc2c1 [Example 8, 3-(3-pyridyl)benzo[b]thiophen-6-ol] | 59% | –
4 | CC(=O)Oc1ccc2c(-c3cccnc3)csc2c1 [Example 9, 3-(3-pyridyl)benzo[b]thiophen-6-yl=acetate] | – | 63%
5 | O=C(Oc1ccc2c(-c3cccnc3)csc2c1)c1ccccc1 [Example 10, 3-(3-pyridyl)benzo[b]thiophen-6-yl=benzoate] | – | 71%
6 | c1ccc(COc2ccc3c(-c4cccnc4)csc3c2)cc1 [Example 11, 3-(6-benzyloxybenzo[b]thiophen-3-yl)pyridine hydrochloride] | 71% | –
7 | CC(C)Oc1ccc2c(-c3cccnc3)csc2c1 [Example 12, 3-(6-isopropyloxybenzo[b]thiophen-3-yl)pyridine hydrochloride] | 100% | –
8 | Fc1ccc(-c2ccc3c(-c4cccnc4)csc3c2)cc1 [Example 13, 3-[6-(4-fluorophenyl)benzo[b]thiophen-3-yl]pyridine hydrochloride] | 93% | –
9 | Fc1cccc(-c2ccc3c(-c4cccnc4)csc3c2)c1 [Example 14, 3-[6-(3-fluorophenyl)benzo[b]thiophen-3-yl]pyridine] | 91% | –
10 | c1ccc(-c2ccc3c(-c4cccnc4)csc3c2)cc1 [Example 15, 3-(6-phenylbenzo[b]thiophen-3-yl)pyridine] | 93% | –
11 | COc1cccc(-c2ccc3c(-c4cccnc4)csc3c2)c1 [Example 16, 3-[6-(3-methoxyphenyl)benzo[b]thiophen-3-yl]pyridine hydrochloride] | 73% | –
12 | COc1ccc(-c2ccc3c(-c4cccnc4)csc3c2)cc1 [Example 18, 3-[6-(4-methoxyphenyl)benzo[b]thiophen-3-yl]pyridine] | 37% | –
13 | Oc1ccc(-c2ccc3c(-c4cccnc4)csc3c2)cc1 [Example 19, 4-[3-(3-pyridyl)benzo[b]thiophen-6-yl]-phenol] | 68% | –
14 | COc1ccc(-c2ccc3c(-c4cccnc4)csc3c2)cc1OC [Example 21, 3-[6-(3,4-dimethoxyphenyl)benzo[b]thiophen-3-yl]pyridine] | 30% | –
15 | Oc1ccc(-c2ccc3c(-c4cccnc4)csc3c2)cc1O [Example 22, 4-[3-(3-pyridyl)benzo[b]thiophen-6-yl]benzene-1,2-diol] | 73% | –
16 | Nc1cccc(-c2ccc3c(-c4cccnc4)csc3c2)c1 [Example 23, 3-[3-(3-pyridyl)benzo[b]thiophen-6-yl]phenylamine] | 100% | –
17 | c1cncc(-c2csc3cc(OC4CCCC4)ccc23)c1 [Example 25, 3-(6-cyclopentyloxybenzo[b]thiophen-3-yl)pyridine hydrochloride] | 76% | –
18 | COc1cccc(Oc2ccc3c(-c4cccnc4)csc3c2)c1 [Example 26, 3-[6-(3-methoxyphenoxy)benzo[b]thiophen-3-yl]pyridine hydrochloride] | 1% | –
19 | Cc1ccc2c(-c3cccnc3)csc2c1 [Example 27, 3-(6-methylbenzo[b]thiophen-3-yl)pyridine hydrochloride] | 56% | –
20 | Brc1ccc2c(-c3cccnc3)csc2c1 [Example 28, 3-(6-bromobenzo[b]thiophen-3-yl)pyridine hydrochloride] | 42% | –

Row | Compound | inhibition at 0.3 µM | Inhibitory activity (%)
21 | Brc1cccc2scc(-c3cccnc3)c12 [Example 29, 3-(4-bromobenzo[b]thiophen-3-yl)pyridine hydrochloride] | 25% | –
22 | c1cncc(-c2csc3cc(OC4CCC4)ccc23)c1 [Example 30, 3-(6-cyclobutyloxybenzo[b]thiophen-3-yl) pyridine hydrochloride] | 100% | –
23 | c1cncc(-c2csc3cc(-c4ccsc4)ccc23)c1 [Example 31, 3-[6-(3-thienyl)benzo[b]thiophen-3-yl]pyridine hydrochloride] | 100% | –
24 | c1cncc(-c2csc3cc(-c4ccoc4)ccc23)c1 [Example 32, 3-[6-(3-furyl)benzo[b]thiophen-3-yl]pyridine hydrochloride] | 100% | –
25 | c1cncc(-c2csc3cc(-c4cccs4)ccc23)c1 [Example 33, 3-[6-(2-thienyl)benzo[b]thiophen-3-yl]pyridine hydrochloride] | 100% | –
26 | c1cncc(-c2csc3cc(-c4ccco4)ccc23)c1 [Example 34, 3-[6-(2-furyl)benzo[b]thiophen-3-yl]pyridine hydrochloride] | 100% | –
27 | CCCCCCOc1ccc2c(-c3cccnc3)csc2c1 [Example 35, 3-(6-hexyloxybenzo[b]thiophen-3-yl)pyridine hydrochloride] | 61% | –
28 | CCCCCOc1ccc2c(-c3cccnc3)csc2c1 [Example 36, 3-(6-amyloxybenzo[b]thiophen-3-yl)pyridine hydrochloride] | 60% | –
29 | CCCCOc1ccc2c(-c3cccnc3)csc2c1 [Example 37, 3-(6-butyloxybenzo[b]thiophen-3-yl)pyridine hydrochloride] | 80% | –
30 | CC(=O)c1ccccc1-c1ccc2c(-c3cccnc3)csc2c1 [Example 38, 1-{2-[3-(3-pyridyl)benzo[b]thiophen-6-yl]phenyl}-1-ethanone hydrochloride] | 45% | –
31 | CC(=O)c1cccc(-c2ccc3c(-c4cccnc4)csc3c2)c1 [Example 39, 1-{3-[3-(3-pyridyl)benzo[b]thiophen-6-yl]phenyl}-1-ethanone] | 64% | –
32 | CC(C)COc1ccc2c(-c3cccnc3)csc2c1 [Example 40, 3-(6-isobutyloxybenzo[b]thiophen-3-yl) pyridine hydrochloride] | 79% | –
33 | CCCOc1ccc2c(-c3cccnc3)csc2c1 [Example 41, 3-(6-propyloxybenzo[b]thiophen-3-yl)pyridine hydrochloride] | 95% | –
34 | c1cncc(-c2csc3cc(-c4ccc5c(c4)OCO5)ccc23)c1 [Example 42, 3-[6-(1,3-benzodioxol-5-yl)benzo[b]thiophen-3-yl]pyridine hydrochloride] | 57% | –
35 | CCOc1ccc2c(-c3cccnc3)csc2c1 [Example 43, 3-(6-ethyloxybenzo[b]thiophen-3-yl)pyridine hydrochloride] | 97% | –
36 | CC(=O)c1ccc(-c2ccc3c(-c4cccnc4)csc3c2)cc1 [Example 44, 1-{4-[3-(3-pyridyl)benzo[b]thiophen-6-yl]phenyl}-1-ethanone] | 46% | –
37 | CN(C)CCOc1ccc2c(-c3cccnc3)csc2c1 [Example 45, 3-[6-(N,N-dimethyl-2-aminoethyloxy)benzo[b]thiophen-3-yl]pyridine dimaleate] | 33% | –
38 | CC(C)Cc1ccc2c(-c3cccnc3)csc2c1 [Example 46, 3-(6-isobutylbenzo[b]thiophen-3-yl)pyridine hydrochloride] | 100% | –
39 | CSc1ccc(-c2ccc3c(-c4cccnc4)csc3c2)cc1 [Example 47, 3-[6-(4-methylthiophenyl)benzo[b]thiophen-3-yl]pyridine hydrochloride] | 53% | –
